Laboratory results: PubChem BioAssay AID330 (DTP/NCI, 2004)
“And” between values parts separate entries of the source, which are not always exact repeats. Equal values may be shown once. Toxic doses and inconclusive results are not listed.

Test system: P388 leukemia ip, CD2F1 mice, survival T/C
Assay: NCI In Vivo Anticancer Drug Screen. Data for tumor model P388 Leukemia (intraperitoneal) in CD2F1 (CDF1) mice
Details: endpoint: median survival time, higher = longer survival
In short: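 Mice carrying the transplanted tumor received test compound or vehicle. Survival was recorded in each group, and the value is the treated-group measurement divided by that of the vehicle-treated control group.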

[1] = dose: 50.0 mg/kg/injection, schedule: Q01DX005 (ip), vehicle: Klucel (hydroxypropylcellulose) (HPC)
[2] = dose: 32.0 mg/kg/injection, schedule: Q01DX009 (ip), vehicle: Klucel (hydroxypropylcellulose) (HPC)
[3] = dose: 32.0 mg/kg/injection, schedule: Q01DX009 (ip), vehicle: saline with Tween-80
[4] = dose: 64.0 mg/kg/injection, schedule: Q01DX009 (ip), vehicle: Klucel (hydroxypropylcellulose) (HPC)
[5] = dose: 128.0 mg/kg/injection, schedule: Q01DX009 (ip), vehicle: saline with Tween-80
[6] = dose: 256.0 mg/kg/injection, schedule: Q01DX009 (ip), vehicle: saline with Tween-80
[7] = dose: 512.0 mg/kg/injection, schedule: Q01DX009 (ip), vehicle: saline with Tween-80
[8] = dose: 50.0 mg/kg/injection, schedule: Q01DX005 (ip), vehicle: saline with Tween-80

CCOC(=O)NC(NC(=O)OCC)c1ccccc1
T/C (dose: 100.0 mg/kg/injection, schedule: Q04DX003 (ip), vehicle: saline): 100 % of control | T/C (dose: 200.0 mg/kg/injection, schedule: Q04DX003 (ip), vehicle: saline): 98 % of control | T/C (dose: 400.0 mg/kg/injection, schedule: Q04DX003 (ip), vehicle: saline): 92 % of control

Cc1ccc(S(=O)(=O)N2c3ccccc3CCN2/C=C/c2ccccc2)cc1
T/C [1]: 100 % of control | T/C (dose: 100.0 mg/kg/injection, schedule: Q01DX005 (ip), vehicle: Klucel (hydroxypropylcellulose) (HPC)): 93 % of control | T/C (dose: 200.0 mg/kg/injection, schedule: Q01DX005 (ip), vehicle: Klucel (hydroxypropylcellulose) (HPC)): 96 % of control

O=c1cc[nH]c(=O)[nH]1
T/C [2]: 99 % of control and 106 % of control | T/C [3]: 114 % of control | T/C [4]: 98 % of control and 100 % of control | T/C (dose: 64.0 mg/kg/injection, schedule: Q01DX009 (ip), vehicle: saline with Tween-80): 100 % of control | T/C (dose: 100.0 mg/kg/injection, schedule: Q01DX009 (ip), vehicle: saline): 98 % of control | T/C (dose: 128.0 mg/kg/injection, schedule: Q01DX009 (ip), vehicle: Klucel (hydroxypropylcellulose) (HPC)): 99 % of control and 102 % of control | T/C [5]: 95 % of control | T/C (dose: 200.0 mg/kg/injection, schedule: Q01DX009 (ip), vehicle: saline): 100 % of control | T/C (dose: 256.0 mg/kg/injection, schedule: Q01DX009 (ip), vehicle: Klucel (hydroxypropylcellulose) (HPC)): 100 % of control and 109 % of control | T/C [6]: 100 % of control | T/C (dose: 400.0 mg/kg/injection, schedule: Q01DX009 (ip), vehicle: saline): 102 % of control | T/C (dose: 512.0 mg/kg/injection, schedule: Q01DX009 (ip), vehicle: Klucel (hydroxypropylcellulose) (HPC)): 108 % of control and 109 % of control | T/C [7]: 97 % of control

COC(=O)c1ncn(C)c1O
T/C (dose: 60.0 mg/kg/injection, schedule: Q01DX005 (ip), vehicle: water): 103 % of control | T/C (dose: 120.0 mg/kg/injection, schedule: Q01DX005 (ip), vehicle: water): 113 % of control | T/C (dose: 240.0 mg/kg/injection, schedule: Q01DX005 (ip), vehicle: water): 104 % of control

CCOC(=O)C(CC(C)C)NC(=O)C(Cc1ccc(N(CCCl)CCCl)cc1)NC(C)=O (stereo not drawn)
T/C (dose: 0.25 mg/kg/injection, schedule: Q01DX009 (ip), vehicle: saline): 101 % of control | T/C (dose: 0.5 mg/kg/injection, schedule: Q01DX009 (ip), vehicle: saline): 115 % of control | T/C (dose: 1.0 mg/kg/injection, schedule: Q01DX009 (ip), vehicle: saline): 111 % of control | T/C (dose: 2.0 mg/kg/injection, schedule: Q01DX009 (ip), vehicle: Klucel (hydroxypropylcellulose) (HPC)): 109 % of control | T/C (dose: 2.0 mg/kg/injection, schedule: Q01DX009 (ip), vehicle: olive oil, sesame oil, peanut oil): 111 % of control | T/C (dose: 2.0 mg/kg/injection, schedule: Q01DX009 (ip), vehicle: saline with Tween-80): 100 % of control | T/C (dose: 4.0 mg/kg/injection, schedule: Q01DX009 (ip), vehicle: Klucel (hydroxypropylcellulose) (HPC)): 110 % of control | T/C (dose: 4.0 mg/kg/injection, schedule: Q01DX009 (ip), vehicle: olive oil, sesame oil, peanut oil): 120 % of control | T/C (dose: 4.0 mg/kg/injection, schedule: Q01DX009 (ip), vehicle: saline with Tween-80): 100 % of control | T/C (dose: 8.0 mg/kg/injection, schedule: Q01DX009 (ip), vehicle: Klucel (hydroxypropylcellulose) (HPC)): 120 % of control | T/C (dose: 8.0 mg/kg/injection, schedule: Q01DX009 (ip), vehicle: saline with Tween-80): 109 % of control | T/C (dose: 8.0 mg/kg/injection, schedule: Q01DX009 (ip), vehicle: saline): 163 % of control | T/C (dose: 12.5 mg/kg/injection, schedule: Q01DX005 (iv), vehicle: Klucel (hydroxypropylcellulose) (HPC)): 116 % of control | T/C (dose: 16.0 mg/kg/injection, schedule: Q01DX009 (ip), vehicle: saline with Tween-80): 111 % of control | T/C (dose: 16.0 mg/kg/injection, schedule: Q01DX009 (ip), vehicle: saline): 163 % of control and 225 % of control | T/C (dose: 16.0 mg/kg/injection, schedule: Q04DX003 (ip), vehicle: saline with Tween-80): 152 % of control | T/C (dose: 18.9 mg/kg/injection, schedule: Q04DX003 (ip), vehicle: saline with Tween-80): 152 % of control | T/C (dose: 25.0 mg/kg/injection, schedule: Q01DX005 (ip), vehicle: Klucel (hydroxypropylcellulose) (HPC)): 174 % of control | T/C (dose: 28.4 mg/kg/injection, schedule: Q04DX003 (ip), vehicle: saline with Tween-80): 161 % of control | T/C [2]: 172 % of control | T/C (dose: 32.0 mg/kg/injection, schedule: Q01DX009 (ip), vehicle: olive oil, sesame oil, peanut oil): 175 % of control | T/C [3]: 117 % of control | T/C (dose: 32.0 mg/kg/injection, schedule: Q04DX003 (ip), vehicle: saline with Tween-80): 189 % of control | T/C (dose: 42.6 mg/kg/injection, schedule: Q04DX003 (ip), vehicle: saline with Tween-80): 172 % of control | T/C [1]: 230 % of control | T/C (dose: 50.0 mg/kg/injection, schedule: Q01DX005 (iv), vehicle: Klucel (hydroxypropylcellulose) (HPC)): 156 % of control | T/C [4]: 151 % of control | T/C (dose: 64.0 mg/kg/injection, schedule: Q04DX003 (ip), vehicle: saline with Tween-80): 188 % of control and 211 % of control | T/C (dose: 96.0 mg/kg/injection, schedule: Q04DX003 (ip), vehicle: saline with Tween-80): 170 % of control | T/C [5]: 152 % of control | T/C (dose: 256.0 mg/kg/injection, schedule: Q01DX009 (ip), vehicle: other): 151 % of control | T/C [6]: 152 % of control and 157 % of control | T/C (dose: 512.0 mg/kg/injection, schedule: Q01DX009 (ip), vehicle: other): 179 % of control | T/C [7]: 185 % of control

COc1ccc2c(c1OC)C(CC(=O)O)N1CCc3cc4c(cc3C1C2)OCO4 (stereo not drawn)
T/C (dose: 0.63 mg/kg/injection, schedule: Q01DX009 (ip), vehicle: distilled water + Tween-80): 103 % of control | T/C (dose: 1.25 mg/kg/injection, schedule: Q01DX009 (ip), vehicle: distilled water + Tween-80): 99 % of control | T/C (dose: 2.5 mg/kg/injection, schedule: Q01DX009 (ip), vehicle: distilled water + Tween-80): 106 % of control | T/C (dose: 5.0 mg/kg/injection, schedule: Q01DX009 (ip), vehicle: distilled water + Tween-80): 101 % of control | T/C (dose: 10.0 mg/kg/injection, schedule: Q01DX009 (ip), vehicle: distilled water + Tween-80): 106 % of control | T/C (dose: 20.0 mg/kg/injection, schedule: Q01DX009 (ip), vehicle: distilled water + Tween-80): 94 % of control

CC(C)(C)OC(=O)NC(Cc1ccccc1)C(=O)O (stereo not drawn)
T/C (dose: 6.25 mg/kg/injection, schedule: Q01DX009 (ip), vehicle: Klucel (hydroxypropylcellulose) (HPC)): 101 % of control and 105 % of control | T/C (dose: 12.5 mg/kg/injection, schedule: Q01DX009 (ip), vehicle: Klucel (hydroxypropylcellulose) (HPC)): 107 % of control | T/C (dose: 25.0 mg/kg/injection, schedule: Q01DX009 (ip), vehicle: Klucel (hydroxypropylcellulose) (HPC)): 100 % of control and 88 % of control | T/C (dose: 50.0 mg/kg/injection, schedule: Q01DX009 (ip), vehicle: Klucel (hydroxypropylcellulose) (HPC)): 111 % of control and 88 % of control | T/C (dose: 100.0 mg/kg/injection, schedule: Q01DX009 (ip), vehicle: Klucel (hydroxypropylcellulose) (HPC)): 110 % of control and 97 % of control | T/C (dose: 200.0 mg/kg/injection, schedule: Q01DX009 (ip), vehicle: Klucel (hydroxypropylcellulose) (HPC)): 107 % of control and 97 % of control

CC(=O)N1CN(C(C)=O)CN(C(C)=O)C1
T/C (dose: 60.0 mg/kg/injection, schedule: Q01DX005 (ip), vehicle: saline): 94 % of control | T/C (dose: 120.0 mg/kg/injection, schedule: Q01DX005 (ip), vehicle: saline): 94 % of control | T/C (dose: 240.0 mg/kg/injection, schedule: Q01DX005 (ip), vehicle: saline): 100 % of control

C1=CC2(C=CCC1)OCCO2
T/C [8]: 121 % of control

CCCCCCCc1cc(=O)[nH]c(=S)[nH]1
T/C (dose: 60.0 mg/kg/injection, schedule: Q01DX005 (ip), vehicle: Klucel (hydroxypropylcellulose) (HPC)): 96 % of control | T/C (dose: 120.0 mg/kg/injection, schedule: Q01DX005 (ip), vehicle: Klucel (hydroxypropylcellulose) (HPC)): 95 % of control | T/C (dose: 240.0 mg/kg/injection, schedule: Q01DX005 (ip), vehicle: Klucel (hydroxypropylcellulose) (HPC)): 89 % of control

CCc1nc(N)nc(N)c1-c1ccc2c(c1)nnn2C1CCCCC1
T/C [8]: 100 % of control | T/C (dose: 100.0 mg/kg/injection, schedule: Q01DX005 (ip), vehicle: saline with Tween-80): 100 % of control | T/C (dose: 200.0 mg/kg/injection, schedule: Q01DX005 (ip), vehicle: saline with Tween-80): 87 % of control
